Experimental data: publication PMC9668914, “Understanding VPAC receptor family peptide binding and selectivity” (Nature Communications, 2022)
Where two headings read alike, the source gives them in different places.

How the values were obtained:
Nluc-PAC1R [1] = biological target: Nluc-PAC1R (UniProt P41586); test: FRET or BRET; NanoBRET whole cell competition binding; COS-7 cells with Nluc-PAC1R, 30 nM AF568-PACAP27 and increasing competing peptide added together, 4 °C, BRET buffer (0.1% ovalbumin, 10 mM HEPES, 1x HBSS, pH 7.45); one site fit of log IC50
M299^PAC1R/D301^PAC1R = conditions: cited from earlier work
Excerpt: Nonetheless, the secondary engagement of the peptide N-terminus with ECL2/ECL3 appeared to coordinate interactions that preceded the movement of the far N-terminal residues deeper into the binding pocket. Unique residues in ECL2 that differ between the V ...

[2] = test system: PAC1R WT, C25A, C219A, C25A/C219A; test: cAMP accumulation, cysteine mutagenesis (Fig. 6e, Supplementary Fig. 13d-f); format: cell-based; conditions: COS-7, mean of n = 3
Method: (§1) Maps are shown in transparent and model backbones are shown in ribbon format. The relevant cysteines are shown as stick models, with the putative disulfide bond present. […] The data for panels d and e are the mean ± SEM, n = 3 independent experiments. Differences in potency between WT and mutant receptors was assessed using a one-way ANOVA and Dunnett’s post-test. […] Interactions are listed by percentage of occupancy of frames, with the background colouring representing maximum occupancy % (red) and minimum occupancy % (white). Receptor residue background colouring is according to their residue numbering (TM transmembrane helix, ECL3 extracellular loop 3). Table is based on data presented in Supplementary Table 4. Source data for panels d and e are provided in the Source Data file.
(§2) An HA signal peptide was inserted in place of the native signal peptide of the receptors and a FLAG epitope was incorporated into the receptor N-terminus immediately after the signal peptide. A His tag was fused to C-terminus of the receptor. 3C protease cleavage sites were inserted between both the FLAG and His tags and the receptor. […] The following PAC1R and VPAC1R mutants were also generated using Quikchange mutagenesis: PAC1R C25A, PAC1R C219A, PAC1R C25A/C219A, VPAC1R C37A and VPAC1R C208A. For all PAC1R constructs, we used the PAC1R null (PAC1n) splice variant. A construct containing N-terminal NLuc immediately after the native signal peptide of PAC1R was also generated in pcDNA3.1.
(§3) COS-7 cells were used for the chimeric peptide and cysteine mutagenesis pharmacological assays due to their lack of endogenous expression of PAC1R and receptor activity-modifying proteins, reported to potentially heterodimerize with PAC1R and VPAC1R[42]. […] COS-7 cells were plated in 10 cm dishes at approximately 1 million cells/dish. Cells were transfected 24 h later, with 5 µg of either WT or mutant PAC1R or VPAC1R receptor DNA. […]
(§4) The reaction was terminated after 30 min by aspiration of the buffer and addition of 50 μl of ice-cold ethanol. […] The plates were read using an EnVision plate reader with excitation at 320 nm and emission at 615 nm[45].
(§5) The pharmacological data in figures and tables are reported as mean + standard error of the mean (SEM) with the number of biological replicates indicated in the figure and table legends where “n” represents the number of biological replicates performed. Concentration-response data were analyzed in GraphPad Prism version 9.4.0 using a three-parameter logistic curve to derive pEC50 values for the cyclic AMP accumulation. Competition binding data were analyzed in GraphPad Prism using the one site—Fit log IC50 model to derive pIC50 values. […]

VPAC1R WT, C37A, C208A = test: cAMP accumulation, cysteine mutagenesis (Fig. 6d, Supplementary Fig. 13a-c); format: cell-based; conditions: for Difference in cAMP potency (pEC50) between WT and mutant VPAC1R: COS-7, mean of n = 3
Method: as §1, §2, §3, §4, §5

GLP-1R = conditions: cited from earlier work
Excerpt: In the equivalent position as R ...

VPAC2R = conditions: cited from earlier work
PAC1R = biological target: T1, PAC1R (Homo sapiens, UniProt P41586); test: cAMP accumulation, chimeric peptides (Fig. 5b); format: cell-based; conditions: COS-7, three-parameter logistic, read-out: pEC50, PAC1R cAMP (converted)
T1 construct: An HA signal peptide was inserted in place of the native signal peptide of the receptors; HA signal peptide (replaces the native signal peptide) (N); 3C protease cleavage sites (between FLAG and receptor, and between receptor and His) (internal); expressed in transfected cells; host or cells: COS-7 (transient, PEI)
T1 sequence (P41586 21-468): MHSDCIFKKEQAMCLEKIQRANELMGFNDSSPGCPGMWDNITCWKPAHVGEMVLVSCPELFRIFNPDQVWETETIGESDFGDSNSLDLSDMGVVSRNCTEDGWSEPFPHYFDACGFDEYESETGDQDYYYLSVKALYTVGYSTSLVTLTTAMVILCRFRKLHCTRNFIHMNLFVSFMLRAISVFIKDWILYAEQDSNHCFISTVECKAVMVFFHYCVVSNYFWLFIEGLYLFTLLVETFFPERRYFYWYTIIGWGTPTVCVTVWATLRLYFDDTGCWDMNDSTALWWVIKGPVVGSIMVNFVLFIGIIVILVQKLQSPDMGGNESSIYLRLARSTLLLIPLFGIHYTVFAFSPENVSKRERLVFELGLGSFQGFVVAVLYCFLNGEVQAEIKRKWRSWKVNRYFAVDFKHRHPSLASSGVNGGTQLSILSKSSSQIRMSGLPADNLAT
Excerpt: as §2
COS-7 cells were used for the chimeric peptide and cysteine mutagenesis pharmacological assays due to their lack of endogenous expression of PAC1R and receptor activity-modifying proteins, reported to potentially heterodimerize with PAC1R and VPAC1R[42]. Cells were cultured in Dulbecco’s Modified Eagle’s Medium (DMEM) (Invitrogen) supplemented with 5% v/v heat-inactivated FBS at 37 °C and […] /5% CO2 in a humidified incubator. COS-7 cells were plated in 10 cm dishes at approximately 1 million cells/dish. Cells were transfected 24 h later, with 5 µg of either WT or mutant PAC1R or VPAC1R receptor DNA. DNA and PEI (in a 1:6 ratio) were each diluted in 150 mM NaCl, and then combined and incubated for 10 min, before the mixture was added to the 10 cm dish. The next day, cells were harvested from the 10 cm dishes using Trypsin-Versene (PBS + 0.5 mM EDTA, pH 7.4), and were seeded at a density of 15,000 cells/well into clear 96-well culture plates and incubated overnight at 37 °C in 5% CO2 for cAMP accumulation assay the next day.
The reaction was terminated after 30 min by aspiration of the buffer and addition of 50 μl of ice-cold ethanol. Upon evaporation of ethanol, 75 μl of lysis buffer (5 mM HEPES, 0.1% (w/v) OVA, 0.3% (w/v) Tween20, pH 7.4) was added to the cells. cAMP detection was performed using a LANCE cAMP Detection Kit (PerkinElmer) for the construct validation and cysteine mutagenesis pharmacological assays and cAMP Gs HiRange kit (Cisbio) for the chimeric peptide pharmacological assays. The plates were read using an EnVision plate reader with excitation at 320 nm and emission at 615 nm[45].
(§6) The pharmacological data in figures and tables are reported as mean + standard error of the mean (SEM) with the number of biological replicates indicated in the figure and table legends where “n” represents the number of biological replicates performed. Concentration-response data were analyzed in GraphPad Prism version 9.4.0 using a three-parameter logistic curve to derive pEC50 values for the cyclic AMP accumulation. Competition binding data were analyzed in GraphPad Prism using the one site—Fit log IC50 model to derive pIC50 values. For the cysteine mutagenesis data, comparisons of multiple different groups were performed using one-way analysis of variance (ANOVA), followed by Dunnett’s post-hoc test with the control group being the WT receptor, with significance accepted at p < 0.05. For the chimeric peptide data, comparisons of multiple different groups were performed using one-way ANOVA, followed by Tukey’s post-hoc test, with significance accepted at p < 0.05.

Nluc-PAC1R [3] = biological target: T2, Nluc-PAC1R (Homo sapiens, UniProt P41586); test: NanoBRET competition binding, AF568-PACAP27 probe (Fig. 5c); conditions: COS-7, 30 nM AF568-PACAP27, 4 °C, read-out: pIC50, PAC1R competition binding (converted)
T2 construct: A construct containing N-terminal NLuc immediately after the native signal peptide of PAC1R was also generated in pcDNA3.1; expressed in transfected cells; host or cells: COS-7 (transient, PEI; whole cells at 4 °C)
T2 sequence (P41586 21-468): T1 sequence (P41586 21-468)
Excerpt: as §2
Therefore, the lysine residue at position 21 was replaced with a cysteine residue (^21C) for the facile conjugation of fluorophore via thiol-maleimide click reaction. The resulting target peptide ^21C-PACAP27 (Mutant fragment) with amidated C-terminus was synthesized by standard Fmoc-solid phase peptide synthesis method[43] and purified by Reversed-phase high-performance liquid chromatography (RP-HPLC). […] of Alexa Fluor™ 568F was purchased from ThermoFisher Scientific (Catalog number: A20003). The thiol-maleimide conjugation reaction was carried out by our published protocol. […] The molecular weight of the probe was confirmed by Matrix-Assisted Laser Desorption/Ionization Time-of-Flight Mass Spectrometry (MALDI-TOF MS).
COS-7 cells were plated in 10 cm dishes at approximately 1 million cells/dish. Cells were transfected 24 h later, using 3 μg of Nluc-PAC1R DNA using the method described above and then seeded at a density of 15,000 cells per well in white-bottom 96-well culturplates 24 h prior to assay. On the day of the assay, cell culture media was replaced with BRET buffer (0.1% ovalbumin, 10 mM HEPES, 1x HBSS, pH 7.45) and incubated at 4 °C for two hours. […] After 1.5 h, furimazine (10 μM final concentration) was added to each well and the plate incubated for a further 30 min in the dark at 4 °C before reading. Filtered light emissions were measured at 460±40 nm (donor channel) and at 610-LP nm (long pass) (acceptor channel) using a PHERAstar plate reader (BMG Labtech). The raw NanoBRET ratio was calculated by dividing the luminescence from the acceptor channel by the donor channel. Data were expressed as % AF568-PACAP27 BRET signal in the absence of competing ligand.
as §6

Molecule: Ala4 PACAP27 (peptide)
- fold reduction in pIC50 relative to PACAP27 (Nluc-PAC1R [1]): 30 fold

Molecule: PACAP38: PACAP38, a 38 amino acid peptide
- PACAP38-mediated cAMP production with alanine mutation of M299/D301 PAC1R (M299^PAC1R/D301^PAC1R): reduced PACAP38-mediated cAMP production
- Difference in cAMP potency (pEC50) between WT and mutant PAC1R ([2]; C25A C219A): -0.4376
- Difference in cAMP potency (pEC50) between WT and mutant PAC1R ([2]; C25A): -0.9347
- Difference in cAMP potency (pEC50) between WT and mutant PAC1R ([2]; C219A): -0.4471
- Difference in cAMP potency (pEC50) between WT and mutant PAC1R ([2]; WT): 0
- Difference in cAMP potency (pEC50) between WT and mutant VPAC1R (VPAC1R WT, C37A, C208A; C37A): -0.5843
- Difference in cAMP potency (pEC50) between WT and mutant VPAC1R (VPAC1R WT, C37A, C208A; C208A): -0.568
- reduction in cAMP potency at single cysteine mutants of either receptor, compared with VIP (VPAC1R WT, C37A, C208A; VPAC1R and PAC1R single mutants (Fig. 6d, e), only significant for PACAP27 at C37A VPAC1R or C25A PAC1R): much smaller reduction in potency
- Difference in cAMP potency (pEC50) between WT and mutant VPAC1R (VPAC1R WT, C37A, C208A; WT): 0

Molecule: GLP-1: glucagon-like peptide 1
- GLP-1 affinity with R380 of GLP-1R switched to the VPAC1R residue (GLP-1R): reduced GLP-1 affinity
- GLP-1 potency for cAMP production at GLP-1R D372A, E373A (GLP-1R): reduced GLP-1 potency for cAMP production

Molecule: pituitary adenylate cyclase-activating polypeptide [PACAP]
- VPAC2R affinity (VPAC2R): high affinity

Molecule: CC[C@H](C)[C@H](NC(=O)[C@H](CO)NC(=O)[C@H](CC(N)=O)NC(=O)[C@H](CC(C)C)NC(=O)[C@H](Cc1ccc(O)cc1)NC(=O)[C@H](CCCCN)NC(=O)[C@H](CCCCN)NC(=O)[C@@H](NC(=O)[C@H](C)NC(=O)[C@H](CCSC)NC(=O)[C@H](CCC(N)=O)NC(=O)[C@H](CCCCN)NC(=O)[C@H](CCCN=C(N)N)NC(=O)[C@H](CC(C)C)NC(=O)[C@H](CCCN=C(N)N)NC(=O)[C@@H](NC(=O)[C@H](Cc1ccc(O)cc1)NC(=O)[C@H](CC(N)=O)NC(=O)[C@H](CC(=O)O)NC(=O)[C@@H](NC(=O)[C@H](Cc1ccccc1)NC(=O)[C@@H](NC(=O)[C@H](C)NC(=O)[C@H](CC(=O)O)NC(=O)[C@H](CO)NC(=O)[C@@H](N)Cc1c[nH]cn1)C(C)C)[C@@H](C)O)[C@@H](C)O)C(C)C)C(=O)N[C@@H](CC(C)C)C(=O)N[C@@H](CC(N)=O)C(N)=O [VIP, vasoactive intestinal peptide, reference compound]
- EC50 (PAC1R; replicate n=1): 38.5 nM
- EC50 (PAC1R; replicate n=2): 30.9 nM
- EC50 (PAC1R; replicate n=3): 43.3 nM
- EC50 (PAC1R; replicate n=4): 76.4 nM
- EC50 (PAC1R; replicate n=5): 104 nM
- IC50 (Nluc-PAC1R [3]; replicate n=1): 4500 nM
- IC50 (Nluc-PAC1R [3]; replicate n=2): 8090 nM
- IC50 (Nluc-PAC1R [3]; replicate n=3): 12700 nM
- IC50 (Nluc-PAC1R [3]; replicate n=4): 15700 nM
- IC50 (Nluc-PAC1R [3]; replicate n=5): 7140 nM
